Reference: ChEMBL document CHEMBL5625209, “Rational design and optimization of acylthioureas as novel potent influenza virus non-nucleoside polymerase inhibitors” (Eur J Med Chem, 2023)

Test system: Influenza A virus
Test: Antiviral activity against Influenza A virus H1N1 (A/Puerto Rico/8/34) harboring H274Y mutant infected in MDCK cells
Format: functional, organism-based

SMILES | EC50 [nM]
CC(C)(C)c1ccc(C(=O)NC(=S)Nc2ccc(NC(=O)c3ccccc3)cc2)cc1 | 600
CC(C)(C)c1ccc(C(=O)NC(=S)Nc2ccc(NC(=O)c3ccc(Cl)cc3)cc2)cc1 | 400
CC(C)(C)c1ccc(C(=O)NC(=S)Nc2ccc(O)cc2)cc1 | 9400
CCC(=O)Nc1ccc(NC(=S)NC(=O)c2ccc(C(C)(C)C)cc2)cc1 | 5400
CC(C)(C)c1ccc(C(=O)NC(=S)Nc2ccc(NC(=O)c3ccc(C(C)(C)C)cc3)cc2)cc1 | 20
